Measurements reported in patent US4952580A, “Pesticidal polyhaloalkene derivatives” (priority 1988, dated 1990).
Where two headings read alike, the source gives them in different places.

Columns and labels:
[1] = test system: root-knot nematode (Meloidogyne incognita); assay: Initial Root-Knot Nematicidal Activity; format: in vivo; conditions: 336 h, read-out: Percent Control; for pest or weed control at 0.078 ppm: Table 2, Application Rate 0.078 ppm; for pest or weed control at 0.156 ppm: Table 2, Application Rate 0.156 ppm
How it was run: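 Compound incorporated into Meloidogyne incognita-infested soil at 10 ppm to 0.078 ppm, then planted with tomato or cucumber seedlings. Root galling scored two weeks after planting as a knot index and converted to percent control, given as averages.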

root-knot nematode [2] = assay: Residual Root-Knot Nematicidal Activity; format: in vivo, Meloidogyne incognita; conditions: read-out: Percent Control
How it was run: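 Soil received 5% dust formulation at 5 and 10 ppm test compound and was held in a greenhouse, then infested with root-knot nematode eggs and larvae at 1, 2 and 4 weeks post-treatment. Cucumber or tomato seedlings were planted and scored about two weeks after infestation for Knot Index and Percent Control.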

stunt nematode = assay: Stunt Nematode Test; format: in vivo
lesion nematode = assay: Lesion Nematode Test; format: in vivo; conditions: read-out: Percent Control
How it was run: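 Run as the stunt nematode test but on pea seedlings; compounds applied as dust formulations (initial and residual activity) or acetone/water formulations (systemic activity), with untreated samples as reference. Percent control derived by formula.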

cyst nematode = assay: Cyst Nematode Test; format: in vivo; conditions: read-out: Percent Control
Experimental: (§1) Compounds of this invention were tested as follows for nematicidal and anthelmintic activity as dust formulations (initial and residual activity) and as acetone/water formulations (systemic activity). The formulations are described above.
The procedures was substantially the same as described in the stunt nematode test except soybean seedlings were used. "Percent Control" (Table 6 appended) is as defined in the stunt nematode test results.

root-knot nematode [3] = assay: Soil Mobility against root-knot nematode; format: in vivo, Meloidogyne incognita; conditions: 336 h
How it was run: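 Soil mobility of the nematicidal test material was evaluated by placing treated, nematode-infested soil in 8 cm plastic pots stacked above two or more pots of untreated infested soil, each containing a 10 cm^3 sand layer and filter paper discs. Fifteen cm of water was dripped through, pots drained 16-18 hours, then were planted with cucumber or tomato seedlings and scored for Percent Control.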

Caenorhabditis elegans = assay: C. Elegans Nematode Screening Test and Evaluation (in-vitro); conditions: Caenorhabditis elegans
How it was run: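 Worms (10-15 per well) in buffer with E. coli food, ampicillin and mycostatin; compound added in DMSO, 2-3 replicates per rate. Incubated 5-6 days at 20° C. Population development scored against untreated wells, noting effects such as reduced egg hatch or molting disruption.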

corn seedling = assay: Phytotoxicity noted in Stunt Nematode Test; format: in vivo; parameters: key: *: Some phytotoxicity; conditions: Table 4a; rate 5 ppm
Excerpt: The procedure was substantially the same as in the initial root-knot nematode tests described above except that rates of application of formulated compound were 2.5 and 5 ppm in soil containing a corn seedling, with subsequent inoculation of the soil with combined larvae and adult stunt nematodes. The samples were evaulated approximately four weeks after infestation. The results (Tables 4 and 4a appended) indicate good control at the test application rates as compared with untreated samples where no control was observed. "Percent control" means the difference between average population counts between untreated and treated samples, divided by average population count of untreated sample, multiplied by 100.

root-knot nematode [4] = assay: Systemic Activity (basipetal, foliar spray) against root-knot nematode; format: in vivo, Meloidogyne incognita; conditions: 336 h, read-out: Percent Control; for pest or weed control at 1250 ppm: Table 8, rate 1250 ppm; for pest or weed control at 2000 ppm: Table 8, rate 2000 ppm
Experimental: as §1
Compounds of the invention were tested for basipetal systemic activity against the root-knot nematode. In this test, tomato plants are grown in 10.2 cm diameter fiber pots containing steam-pasteurized soil mix (50%, soil, 50% sand) until 4-6 true leaves appear. Three of the pots are then placed on a turntable in a spray hood and the plants sprayed with 50 ml of water/acetone solution containing the test compound. The soil surface is covered during the spraying to prevent spraying of the soil. After treatment, the potted plants are placed in a lighted drying chamber. The plants are then grown in a growth chamber at 25° C. for three days and inoculated with a standard nematode culture by incorporating the inoculum into the top cm of soil in the pots. The plants are returned to the growth chamber for about two weeks at which time the pots are allowed to dry until the plants begin to wilt. The roots are shaken free of soil and the degree of galling (swelling) noted as compared to galling of untreated control plants. The results are expressed as Knot Index and Percent Control as defined in the initial root-knot nematode activity tests reported above in Table 2.

[5] = Table 2, Application Rate 0.312 ppm
[6] = Table 2, Application Rate 0.625 ppm
[7] = Table 2, Application Rate 1.25 ppm
[8] = Table 2, Application Rate 2.5 ppm
[9] = 168 h, Table 3a, 5% dust, 5 ppm, inoculation 1 week post-treatment
[10] = 336 h, Table 3a, 5% dust, 5 ppm, inoculation 2 weeks post-treatment
[11] = 672 h, Table 3a, 5% dust, 5 ppm, inoculation 4 weeks post-treatment
[12] = 672 h, Table 4a; rate 5 ppm; read-out: Percent Control
[13] = Table 7a, 5% dust, 5 ppm, BOTTOM container, read-out: Percent Control
[14] = Table 7a, 5% dust, 5 ppm, MIDDLE container, read-out: Percent Control
[15] = Table 7a, 5% dust, 5 ppm, TOP container, read-out: Percent Control
[16] = Table 9 screen, 5 ppm, read-out: Percent Inhibition of Reproduction
[17] = Table 9 screen, 5 ppm, read-out: Percent Mortality
[18] = read-out: Percent Control, Table 7a, 5% dust, 5 ppm, MIDDLE container

Row | SMILES | pest or weed control at 0.312 ppm [1, 5] [%] | pest or weed control at 0.625 ppm [1, 6] [%] | pest or weed control at 1.25 ppm [1, 7] [%] | pest or weed control at 2.5 ppm [1, 8] [%] | pest or weed control at 5 ppm (root-knot nematode [2]; [9]) [%] | pest or weed control at 5 ppm (root-knot nematode [2]; [10]) [%] | pest or weed control at 5 ppm (root-knot nematode [2]; [11]) [%] | pest or weed control at 5 ppm (stunt nematode; [12]) [%] | pest or weed control at 2.5 ppm (lesion nematode; Table 5, rate 2.5 ppm) [%] | pest or weed control at 5 ppm (cyst nematode; Table 6, rate 5 ppm) [%] | pest or weed control at 5 ppm (root-knot nematode [3]; [13]) [%] | pest or weed control at 5 ppm (root-knot nematode [3]; [14]) [%] | pest or weed control at 5 ppm (root-knot nematode [3]; [15]) [%] | inhibition at 5 ppm (Caenorhabditis elegans; [16]) [%] | mortality at 5 ppm (Caenorhabditis elegans; [17]) [%] | pest or weed control at 0.078 ppm [1] [%] | pest or weed control at 0.156 ppm [1] [%] | pest or weed control at 5 ppm (root-knot nematode [2]; 672 h) [%] | pest or weed control at 2000 ppm (root-knot nematode [4]; foliar) [%] | also measured
1 | FC(F)=C(F)CCSc1nnc(Cc2ccccc2F)o1 [Compound 44, 2-(2-fluorophenylmethyl)-5-(3,4,4-trifluoro-3-butenylthio)-1,3,4-oxadiazole] | 50 | 76 | 86 | 98 | 100 | 100 | 100 | 75 | 88 | 59 | 96 | 100 | 100 | 25 | 0 |  |  |  |  | 
2 | FC(F)=C(F)CCSc1nnc(Cc2ccc(F)cc2F)o1 [Compound 46, 2-(2,4-difluorophenylmethyl)-5-(3,4,4-trifluoro-3-butenylthio)-1,3,4-oxadiazole] | 85 | 98 | 98 | 99 | 99 | 100 | 99 | 65 | 77 |  | 78 | 97 | 96 |  |  |  |  |  |  | Some phytotoxicity (corn seedling): *
3 | FC(F)=C(F)CCSc1nnc(Cc2ccc(F)cc2)o1 [Compound 45, 2-(4-fluorophenylmethyl)-5-(3,4,4-trifluoro-3-butenylthio)-1,3,4-oxadiazole] |  | 99 | 99 | 99 | 99 | 100 | 98 | 80 | 41 |  | 83 | 97 | 98 | 25 | 0 |  |  |  |  | pest or weed control at 0.312 ppm [1]: 95%; Some phytotoxicity (corn seedling): *
4 | C=CCSc1nnc(SCCC(F)=C(F)F)s1 [Compound 31, 2-(2-propenylthio)-5-(3,4,4-trifluoro-3-butenylthio)-1,3,4-thiadiazole] |  | 78 | 96 | 99 | 97 | 97 |  | 52 | 11 | 7 | 50 | 86 | 98 | 38 | 0 | 0 | 13 | 95 | 71 | pest or weed control at 1250 ppm (root-knot nematode [4]; foliar): 0%
5 | O=[N+]([O-])c1ccc(CSc2nnc(SCCC(F)=C(F)F)s2)cc1 [Compound 35, 2-(4-nitrophenylmethylthio)-5-(3,4,4-trifluoro-3-butenylthio)-1,3,4-thiadiazole] | 67 |  | 98 | 100 | 99 | 96 | 84 | 77 |  | 0 | 0 | 50 | 99 | 100 | 100 | 0 | 6 |  | 0 | mortality at 5 ppm (Caenorhabditis elegans; Table 10 evaluation, 5 ppm, read-out: Percent Mortality): 100%; inhibition at 1.25 ppm (Caenorhabditis elegans; Table 10 evaluation, 1.25 ppm, read-out: Percent Inhibition of Reproduction): 100%; mortality at 1.25 ppm (Caenorhabditis elegans; Table 10 evaluation, 1.25 ppm, read-out: Percent Mortality): 100%; inhibition at 2.5 ppm (Caenorhabditis elegans; Table 10 evaluation, 2.5 ppm, read-out: Percent Inhibition of Reproduction): 100%; mortality at 2.5 ppm (Caenorhabditis elegans; Table 10 evaluation, 2.5 ppm, read-out: Percent Mortality): 100%
6 | FCCSc1nnc(SCCC(F)=C(F)F)s1 [Compound 27, 2-(2-fluoroethylthio)-5-(3,4,4-trifluoro-3-butenylthio)-1,3,4-thiadiazole] |  |  |  |  |  |  |  |  |  |  |  |  |  |  | 0 |  |  | 99 |  | pest or weed control at 0.312 ppm [1]: 31%; pest or weed control at 0.625 ppm [1]: 79%; pest or weed control at 1.25 ppm [1]: 99%; pest or weed control at 2.5 ppm [1]: 100%; pest or weed control at 5 ppm (root-knot nematode [2]; 168 h): 99%; pest or weed control at 5 ppm (root-knot nematode [2]; 336 h): 97%; pest or weed control at 5 ppm (stunt nematode; 672 h; Table 4a; rate 5 ppm; read-out: Percent Control): 62%; pest or weed control at 2.5 ppm (lesion nematode): 63%; pest or weed control at 5 ppm (cyst nematode): 57%; pest or weed control at 5 ppm (root-knot nematode [3]; read-out: Percent Control, Table 7a, 5% dust, 5 ppm, BOTTOM container): 100%; pest or weed control at 5 ppm (root-knot nematode [3]; [18]): 100%; pest or weed control at 5 ppm (root-knot nematode [3]; read-out: Percent Control, Table 7a, 5% dust, 5 ppm, TOP container): 99%; inhibition at 5 ppm (Caenorhabditis elegans; read-out: Percent Inhibition of Reproduction): 38%
7 | FC(F)=C(F)CCSc1nnc(SCc2cccs2)s1 [Compound 36, 2-(2-thienylmethylthio)-5-(3,4,4-trifluoro-3-butenylthio)-1,3,4-thiadiazole] | 69 | 96 | 99 | 100 | 98 | 99 |  |  |  | 37 | 0 |  | 97 |  |  | 0 | 25 | 95 | 97 | pest or weed control at 1.25 ppm (lesion nematode; Table 5, rate 1.25 ppm): 2%; pest or weed control at 0.625 ppm (lesion nematode; Table 5, rate .625 ppm): 0%; pest or weed control at 5 ppm (root-knot nematode [3]; [18]): 17%; pest or weed control at 1250 ppm (root-knot nematode [4]): 17%
